Results as given in BindingDB's records for doi:10.1021/acsmedchemlett.0c00586 (University of Iowa, 2021).

assay: Binding affinity to BTN3A1 in human PBMC-derived Vgamma9/Vdelta2 T cells assessed as induction of Vgamma9Vdelta2 T cells proliferation incubated for 3 days by gamma delta TCR/PE-CD3+ antibody staining based FACS analysis

For `CC(C)=CCCP(=O)(O)O`, which EC50 is on record?
The EC50 was over 100 µM.

For `C/C(=C\CCP(=O)(OCOC(=O)C(C)(C)C)Oc1ccc2ccc(=O)oc2c1)CO` (stereo not given), which EC50 is on record?
The EC50 was 0.008 µM.

With `CCOC(=O)CNP(=O)(CCC=C(C)C)Oc1cccc2ccccc12` (stereo not given) as the compound, how does the EC50 read?
Its EC50 is over 100 µM.

Which EC50 does the source give for `C/C(C=O)=C\CCP(=O)(OCOC(=O)C(C)(C)C)OCOC(=O)C(C)(C)C` here?
The EC50 was 0.047 µM.

With `COC(=O)CNP(=O)(CC/C=C(\C)C=O)Oc1ccccc1` (stereo not given) as the compound, how does the EC50 read?
The EC50 was 0.047 µM.

For `CCOC(=O)CNP(=O)(CC/C=C(C)/C=N/O)Oc1ccccc1` (stereo not given), which EC50 is on record?
The EC50 was 0.79 µM.

Which EC50 does the source give for `C/C(C=O)=C\CCP(=O)(OCOC(=O)C(C)(C)C)Oc1ccc2ccccc2c1` (stereo not given) here?
Its EC50 is 0.0046 µM.

With `C/C(C=O)=C\CCP(=O)(OCOC(=O)C(C)(C)C)Oc1ccc2ccc(=O)oc2c1` (stereo not given) as the compound, how does the EC50 read?
The EC50 was 0.012 µM.

Which EC50 does the source give for `C/C(C=O)=C\CCP(=O)(NCC(=O)OC(C)C)Oc1ccccc1` (stereo not given) here?
The EC50 was 0.049 µM.

With `CCOC(=O)CNP(=O)(CC/C=C(\C)C=O)Oc1ccccc1` (stereo not given) as the compound, how does the EC50 read?
The EC50 was 0.02 µM.
